Patent US8048879B2, “Substituted 4,5,6,7-tetrahydro-isoxazolo[4,5-c]pyridine compounds and use thereof for producing medicaments” (Gruenenthal GmbH, priority 2005, dated 2011)

Target: T1, 5-HT transporter (Rattus norvegicus, UniProt P31652)
T1 construct: from tissue; host or cells: rat brain (medulla and pons), synaptosomes, P2 fraction
Experiment: 5-HT uptake inhibition, synaptosomes from rat brain (medulla and pons)
Format: biochemical
From the text: b) Method for Determining Noradrenalin and 5-HT Uptake Inhibition:
Synaptosomes from rat brain regions are freshly isolated for in vitro studies, as described in the publication “The isolation of nerve endings from brain” by E. G. Gray and V. P. Whittaker, J. Anatomy 96, pages 79-88, 1962. The corresponding literature description is hereby introduced as a reference and is deemed to be part of the disclosure.
The tissue (hypothalamus for the determination of noradrenalin uptake inhibition and medulla and pons for the determination of 5-HT uptake inhibition) is homogenised in ice-cooled 0.32 M sucrose (100 mg of tissue/1 mL) in a glass homogeniser with Teflon pestle using five complete up and down strokes at 840 revolutions/minute.
The homogenate is centrifuged at 4° C. for 10 minutes at 1000 g. After subsequent centrifugation at 17000 g for 55 minutes, the synaptosomes (P2 fraction) are obtained, which are resuspended in 0.32 M […] (0.5 mL/100 mg of original weight).
The particular uptake is measured in a 96-well microtitre plate. The volume is 250 μL and the incubation proceeds at room temperature (approx. 20-25° C.) under an O2 atmosphere.
The incubation time is 7.5 minutes for [^3H]-NA and 5 minutes for [^3H]-5-HT. The 96 samples are then filtered through a Unifilter GF/B® microtitre plate (Packard) and washed with 200 mL of incubated buffer using a “Brabdel MPXRI-96T Cell-Harvester”. The Unifilter GF/B plate is dried for 1 hour at 55° C. The plate is then sealed with a Back Seal® (Packard) and 35 μL of scintillation fluid are added per well (Ultima Gold®, Packard). After sealing with a top Seal® (Packard) and establishing an equilibrium (around 5 hours), radioactivity is determined in a “Trilux 1450 Microbeta” (Wallac).
The quantity of protein used in the above determination corresponds to the values known from the literature, as for example described in “Protein measurement with the folin phenol reagent”, Lowry et al., J. Biol. Chem., 193, 265-275, 1951.
A detailed description of the method may additionally be found in the literature, for example in M. Ch. Frink, H.-H. Hennies, W. Engelberger, M. Haurand and B. Wilffert (1996) Arzneim.-Forsch./Drug Res. 46 (III), 11, 1029-1036.
The following characteristics were determined for the NA or 5-HT transporter: […]

T1 sequence (P31652 whole entry): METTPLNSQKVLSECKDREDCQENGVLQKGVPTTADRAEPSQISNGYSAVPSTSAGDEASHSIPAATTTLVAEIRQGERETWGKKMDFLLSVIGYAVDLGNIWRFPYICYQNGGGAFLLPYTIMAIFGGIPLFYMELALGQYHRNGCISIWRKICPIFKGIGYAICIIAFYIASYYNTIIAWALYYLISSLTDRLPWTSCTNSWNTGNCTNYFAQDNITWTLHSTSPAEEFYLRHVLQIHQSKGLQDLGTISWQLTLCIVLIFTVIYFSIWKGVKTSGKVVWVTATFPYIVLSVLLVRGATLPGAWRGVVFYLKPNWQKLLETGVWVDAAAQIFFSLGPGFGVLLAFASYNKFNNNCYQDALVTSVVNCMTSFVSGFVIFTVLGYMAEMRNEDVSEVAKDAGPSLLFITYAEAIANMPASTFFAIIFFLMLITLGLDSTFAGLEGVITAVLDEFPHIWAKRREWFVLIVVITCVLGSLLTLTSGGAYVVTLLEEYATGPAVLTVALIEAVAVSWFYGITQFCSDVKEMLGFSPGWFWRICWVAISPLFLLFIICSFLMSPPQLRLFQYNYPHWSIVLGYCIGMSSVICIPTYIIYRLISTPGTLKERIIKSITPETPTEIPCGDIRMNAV

| Structure (SMILES) | inhibition at 10 µM [%] | 5-HT uptake (rat), 10 μM, % inhibition (10 µM) [%] |
| --- | --- | --- |
| COc1ccc(CC(=O)N2CCc3onc(C(=O)NCc4ccccc4)c3C2)cc1 [Example 79, 5-[2-(4-methoxyphenyl)-acetyl]-4,5,6,7-tetrahydro-isoxazolo[4,5-c]pyridine-3-carboxylic acid benzyl amide] | 71 |  |
| CN(CCCNC(=O)c1noc2c1CN(S(=O)(=O)c1ccc(OC(F)(F)F)cc1)CC2)c1ccccc1 [Example 80, 5-(4-trifluoromethoxy-benzenesulfonyl)-4,5,6,7-tetrahydro-isoxazolo[4,5-c]pyridine-3-carboxylic acid [3-(methylphenyl-amino)-propyl] amide] | 65 |  |
| Cc1ccc(S(=O)(=O)N2CCc3onc(C(=O)N4CCN(CCC5CCCCC5)CC4)c3C2)cc1 [Example 82, [4-(2-cyclohexyl-ethyl)-piperazin-1-yl]-[5-(toluene-4-sulfonyl)-4,5,6,7-tetrahydro-isoxazolo[4,5-c]pyridin-3-yl]-methanone] | 62 |  |
| O=C(c1noc2c1CN(S(=O)(=O)c1cc(Cl)ccc1Cl)CC2)N1CCC(CNC(=O)C(F)(F)F)CC1 [Example 83, N-{1-[5-(2,5-dichloro-benzenesulfonyl)-4,5,6,7-tetrahydro-isoxazolo[4,5-c]pyridine-3-carbonyl]-piperidin-4-ylmethyl}-2,2,2-trifluoroacetamide] | 61 |  |
| COc1ccc(C(C)NC(=O)c2noc3c2CN(S(=O)(=O)c2ccc(OC)cc2)CC3)cc1 (centres unmarked) [Example 84, 5-(4-methoxy-benzenesulfonyl)-4,5,6,7-tetrahydro-isoxazolo[4,5-c]pyridine-3-carboxylic acid [1-(4-methoxyphenyl)-ethyl] amide] | 69 |  |
| CCOC(=O)C(C)NC(=O)c1noc2c1CN(S(=O)(=O)c1cccs1)CC2 (centres unmarked) [Example 85, 2-{[5-(thiophene-2-sulfonyl)-4,5,6,7-tetrahydro-isoxazolo[4,5-c]pyridine-3-carbonyl]-amino}-propionic acid ethyl ester] | 67 |  |
| C=CCOc1ccc(CN(Cc2ccco2)C(=O)c2noc3c2CN(S(=O)(=O)c2cccc(C(F)(F)F)c2)CC3)cc1 [Example 87, 5-(3-trifluoromethyl-benzenesulfonyl)-4,5,6,7-tetrahydro-isoxazolo[4,5-c]pyridine-3-carboxylic acid (4-allyloxy-benzyl)-furan-2-ylmethyl amide] | 66 |  |
| COc1ccc(S(=O)(=O)N2CCc3onc(C(=O)NC(CCC(=O)OC(C)(C)C)C(N)=O)c3C2)cc1 (centres unmarked) [Example 88, 4-carbamoyl-4-{[5-(4-methoxy-benzenesulfonyl)-4,5,6,7-tetrahydro-isoxazolo[4,5-c]pyridine-3-carbonyl]-amino}-butanoic acid tert-butyl ester] | 62 |  |
| CSc1ccc(CN(Cc2ccco2)C(=O)c2noc3c2CN(S(=O)(=O)N(C)C)CC3)cc1 [Example 89, 5-dimethylsulfamoyl-4,5,6,7-tetrahydro-isoxazolo[4,5-c]pyridine-3-carboxylic acid furan-2-ylmethyl-(4-methylsulfanyl-benzyl) amide] | 64 |  |
| Cc1cc(C(=O)N2CCc3onc(C(=O)NCCN4CCOCC4)c3C2)ccc1Br [Example 90, 5-(4-bromo-3-methyl-benzoyl)-4,5,6,7-tetrahydro-isoxazolo[4,5-c]pyridine-3-carboxylic acid (2-morpholin-4-yl-ethyl) amide] | 65 |  |
| Cc1ccc(S(=O)(=O)N2CCc3onc(C(=O)NC4CCN(Cc5c(Cl)cccc5Cl)C4)c3C2)cc1 (centres unmarked) [Example 91, 5-(toluene-4-sulfonyl)-4,5,6,7-tetrahydro-isoxazolo[4,5-c]pyridine-3-carboxylic acid [1-(2,6-dichloro-benzyl)-pyrrolidin-3-yl] amide] | 67 |  |
| O=C(NCCc1ccc(Cl)c(Cl)c1)c1noc2c1CN(S(=O)(=O)c1ccccc1)CC2 [Example 92, 5-benzenesulfonyl-4,5,6,7-tetrahydro-isoxazolo[4,5-c]pyridine-3-carboxylic acid [2-(3,4-dichloro-phenyl)-ethyl] amide] | 61 |  |
| CN(C)CCNC(=O)c1noc2c1CN(C(=O)c1cccc(SC(F)F)c1)CC2 [Example 93, 5-(3-difluoromethylsulfanyl-benzoyl)-4,5,6,7-tetrahydro-isoxazolo[4,5-c]pyridine-3-carboxylic acid (2-dimethylamino-ethyl) amide] | 88 |  |
| O=C(NCCN1CCCC1)c1noc2c1CN(C(=O)COc1cccc(Cl)c1)CC2 [Example 94, 5-[2-(3-chlorophenoxy)-acetyl]-4,5,6,7-tetrahydro-isoxazolo[4,5-c]pyridine-3-carboxylic acid (2-pyrrolidin-1-yl-ethyl) amide] |  | 94 |
| COc1ccc(S(=O)(=O)N2CCc3onc(C(=O)NCc4cccc(OC)c4OC)c3C2)cc1 [Example 95, 5-(4-methoxy-benzenesulfonyl)-4,5,6,7-tetrahydro-isoxazolo[4,5-c]pyridine-3-carboxylic acid 2,3-dimethoxy-benzyl amide] | 68 |  |
| CCOC(=O)CCNC(=O)c1noc2c1CN(C(=O)c1ccc(OC)cc1)CC2 [Example 98, 3-{[5-(4-methoxy-benzoyl)-4,5,6,7-tetrahydro-isoxazolo[4,5-c]pyridine-3-carbonyl]-amino}-propionic acid ethyl ester] | 75 |  |
| CN(C)CCNC(=O)c1noc2c1CN(C(=O)CCCOc1ccccc1)CC2 [Example 99, 5-(4-phenoxy-butyryl)-4,5,6,7-tetrahydro-isoxazolo[4,5-c]pyridine-3-carboxylic acid (2-dimethylamino-ethyl) amide] | 69 |  |
| Cc1cccc2c(CCNC(=O)c3noc4c3CN(S(=O)(=O)c3ccc(OC(F)(F)F)cc3)CC4)c[nH]c12 [Example 100, 5-(4-trifluoromethoxy-benzenesulfonyl)-4,5,6,7-tetrahydro-isoxazolo[4,5-c]pyridine-3-carboxylic acid [2-(7-methyl-1H-indol-3-yl)-ethyl] amide] | 83 |  |
| Cc1cc(C(=O)N2CCc3onc(C(=O)NCCN4CCCC4)c3C2)ccc1Br [Example 102, 5-(4-bromo-3-methyl-benzoyl)-4,5,6,7-tetrahydro-isoxazolo[4,5-c]pyridine-3-carboxylic acid (2-pyrrolidin-1-yl-ethyl) amide] | 70 |  |
| COc1ccc(OCCNC(=O)c2noc3c2CN(S(=O)(=O)c2ccccc2)CC3)cc1 [Example 106, 5-benzenesulfonyl-4,5,6,7-tetrahydro-isoxazolo[4,5-c]pyridine-3-carboxylic acid [2-(4-methoxy-phenoxy)-ethyl] amide] | 76 |  |
| CN(C)S(=O)(=O)N1CCc2onc(C(=O)NCc3ccc(C(F)(F)F)c(F)c3)c2C1 [Example 107, 5-dimethylsulfamoyl-4,5,6,7-tetrahydro-isoxazolo[4,5-c]pyridine-3-carboxylic acid 3-fluoro-4-trifluoromethyl-benzyl amide] | 61 |  |
| C#CCNC(=O)c1noc2c1CN(C(=O)c1cccc(C)c1)CC2 [Example 108, 5-(3-methyl-benzoyl)-4,5,6,7-tetrahydro-isoxazolo[4,5-c]pyridine-3-carboxylic acid prop-2-ynyl amide] | 88 |  |
| O=C(NCc1ccc(F)cc1F)c1noc2c1CN(S(=O)(=O)c1cc(Cl)ccc1Cl)CC2 [Example 112, 5-(2,5-dichloro-benzenesulfonyl)-4,5,6,7-tetrahydro-isoxazolo[4,5-c]pyridine-3-carboxylic acid 2,4-difluoro-benzyl amide] | 71 |  |
| O=C(NCc1ccc(C(F)(F)F)c(F)c1)c1noc2c1CN(S(=O)(=O)c1ccccc1)CC2 [Example 113, 5-benzenesulfonyl-4,5,6,7-tetrahydro-isoxazolo[4,5-c]pyridine-3-carboxylic acid 3-fluoro-4-trifluoromethyl-benzyl amide] | 83 |  |
| CCCCOc1ccc(S(=O)(=O)N2CCc3onc(C(=O)NCC(C)C)c3C2)cc1 [Example 114, 5-(4-butoxy-benzenesulfonyl)-4,5,6,7-tetrahydro-isoxazolo[4,5-c]pyridine-3-carboxylic acid isobutyl amide] | 85 |  |
| Cc1ccc(C(=O)N2CCc3onc(C(=O)NCCN4CCCC4)c3C2)cc1F [Example 115, 5-(3-fluoro-4-methyl-benzoyl)-4,5,6,7-tetrahydro-isoxazolo[4,5-c]pyridine-3-carboxylic acid (2-pyrrolidin-1-yl-ethyl) amide] | 65 |  |
